Data from patent US20200060276A1, “THIAZOLE COMPOUND AND HERBICIDE” (OAT Agrio Co., Ltd., priority 2017, published 2020).

Tests used:
Type in all cases: in vivo
[1] = test system: Echinochloa crus-galli (L.) P. Beauv. var. formosensis Ohwi; test: Test for Herbicidal Effect in Flooding Treatment (#1), ECHDG; conditions: flooding treatment at seeding, dose 2 kg/ha, visual observation on day 21
Procedure, shortened: (§1)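 Visual scores from 0 (<10% inhibition) to 5 (≥90% or complete withering) were taken 21 days after treatment of glasshouse-grown plants. Seeds were sown in soil flooded for 24 h beforehand, and compound was applied dropwise onto the surface at 2 kg/ha as an acetone solution diluted in water with Tween 80.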

Scirpus juncoides = test: Test for Herbicidal Effect in Flooding Treatment (#1), SCIJU; conditions: flooding treatment at seeding, dose 2 kg/ha, visual observation on day 21
Procedure, shortened: as §1

[2] = test system: Echinochloa crus-galli (L.) P. Beauv. var. formosensis Ohwi; test: Test for Herbicidal Effect in Flooding Treatment (#2), ECHDG at 2-2.5 leaf stage; conditions: flooding treatment at 2-2.5 leaf stage, dose 0.2 kg/ha, visual observation on day 21
Procedure, shortened: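 Scoring is a visual 0–5 scale of growth inhibition (0 below 10%, 5 at 90% or more or full withering), taken 21 days after treatment in a glasshouse. Dose was 0.2 kg/ha, applied as acetone/Tween 80 aqueous solution onto flooded soil once seedlings reached the 2–2.5 leaf stage.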

Cyperus microiria = test: Test for Herbicidal Effect in Flooding Treatment (#1), CYMIC; conditions: flooding treatment at seeding, dose 2 kg/ha, visual observation on day 21
Procedure, shortened: as §1

Monochoria vaginalis = test: Test for Herbicidal Effect in Flooding Treatment (#1), MONVA; conditions: flooding treatment at seeding, dose 2 kg/ha, visual observation on day 21
Procedure, shortened: as §1

COc1ccc(Cl)c(CS(=O)(=O)c2ncc(Cl)s2)c1 [Compound 1C-70]
ECHDG #1 herbicidal effect (growth inhibition grade) [1]: 5 (Growth inhibition effect is equal to or greater than 90%, or complete withering is achieved) | SCIJU #1 herbicidal effect (growth inhibition grade) (Scirpus juncoides): 5 (Growth inhibition effect is equal to or greater than 90%, or complete withering is achieved) | ECHDG (2-2.5L) #2 herbicidal effect (growth inhibition grade) [2]: 4 (Growth inhibition effect is equal to or greater than 70%, and less than 90%) | CYMIC #1 herbicidal effect (growth inhibition grade) (Cyperus microiria): 5 (Growth inhibition effect is equal to or greater than 90%, or complete withering is achieved) | MONVA #1 herbicidal effect (growth inhibition grade) (Monochoria vaginalis): 5 (Growth inhibition effect is equal to or greater than 90%, or complete withering is achieved)

CCOc1cccc(CS(=O)(=O)c2ncc(Cl)s2)c1F [Compound 1C-75]
ECHDG #1 herbicidal effect (growth inhibition grade) [1]: 5 (Growth inhibition effect is equal to or greater than 90%, or complete withering is achieved) | SCIJU #1 herbicidal effect (growth inhibition grade) (Scirpus juncoides): 5 (Growth inhibition effect is equal to or greater than 90%, or complete withering is achieved) | ECHDG (2-2.5L) #2 herbicidal effect (growth inhibition grade) [2]: 4 (Growth inhibition effect is equal to or greater than 70%, and less than 90%) | CYMIC #1 herbicidal effect (growth inhibition grade) (Cyperus microiria): 5 (Growth inhibition effect is equal to or greater than 90%, or complete withering is achieved) | MONVA #1 herbicidal effect (growth inhibition grade) (Monochoria vaginalis): 5 (Growth inhibition effect is equal to or greater than 90%, or complete withering is achieved)

CCOc1cc(CS(=O)(=O)c2ncc(Cl)s2)ccc1Cl [Compound 1C-77]
ECHDG #1 herbicidal effect (growth inhibition grade) [1]: 5 (Growth inhibition effect is equal to or greater than 90%, or complete withering is achieved) | SCIJU #1 herbicidal effect (growth inhibition grade) (Scirpus juncoides): 5 (Growth inhibition effect is equal to or greater than 90%, or complete withering is achieved) | ECHDG (2-2.5L) #2 herbicidal effect (growth inhibition grade) [2]: 3 (Growth inhibition effect equal to or greater than 50%, and less than 70%) | CYMIC #1 herbicidal effect (growth inhibition grade) (Cyperus microiria): 5 (Growth inhibition effect is equal to or greater than 90%, or complete withering is achieved) | MONVA #1 herbicidal effect (growth inhibition grade) (Monochoria vaginalis): 5 (Growth inhibition effect is equal to or greater than 90%, or complete withering is achieved)

CCOc1cc(Cl)cc(CS(=O)(=O)c2ncc(Cl)s2)c1 [Compound 1C-78]
ECHDG #1 herbicidal effect (growth inhibition grade) [1]: 5 (Growth inhibition effect is equal to or greater than 90%, or complete withering is achieved) | SCIJU #1 herbicidal effect (growth inhibition grade) (Scirpus juncoides): 5 (Growth inhibition effect is equal to or greater than 90%, or complete withering is achieved) | ECHDG (2-2.5L) #2 herbicidal effect (growth inhibition grade) [2]: 5 (Growth inhibition effect is equal to or greater than 90%, or complete withering is achieved) | CYMIC #1 herbicidal effect (growth inhibition grade) (Cyperus microiria): 5 (Growth inhibition effect is equal to or greater than 90%, or complete withering is achieved) | MONVA #1 herbicidal effect (growth inhibition grade) (Monochoria vaginalis): 5 (Growth inhibition effect is equal to or greater than 90%, or complete withering is achieved)

CCOc1cc(CS(=O)(=O)c2ncc(Cl)s2)cc(C(F)(F)F)c1 [Compound 1C-79]
ECHDG #1 herbicidal effect (growth inhibition grade) [1]: 5 (Growth inhibition effect is equal to or greater than 90%, or complete withering is achieved) | SCIJU #1 herbicidal effect (growth inhibition grade) (Scirpus juncoides): 5 (Growth inhibition effect is equal to or greater than 90%, or complete withering is achieved) | ECHDG (2-2.5L) #2 herbicidal effect (growth inhibition grade) [2]: 2 (Growth inhibition effect is equal to or greater than 30%, and less than 50%) | CYMIC #1 herbicidal effect (growth inhibition grade) (Cyperus microiria): 5 (Growth inhibition effect is equal to or greater than 90%, or complete withering is achieved) | MONVA #1 herbicidal effect (growth inhibition grade) (Monochoria vaginalis): 5 (Growth inhibition effect is equal to or greater than 90%, or complete withering is achieved)

CCOc1c(F)ccc(CS(=O)(=O)c2ncc(Cl)s2)c1F [Compound 1C-81]
ECHDG #1 herbicidal effect (growth inhibition grade) [1]: 5 (Growth inhibition effect is equal to or greater than 90%, or complete withering is achieved) | SCIJU #1 herbicidal effect (growth inhibition grade) (Scirpus juncoides): 5 (Growth inhibition effect is equal to or greater than 90%, or complete withering is achieved) | ECHDG (2-2.5L) #2 herbicidal effect (growth inhibition grade) [2]: 5 (Growth inhibition effect is equal to or greater than 90%, or complete withering is achieved) | CYMIC #1 herbicidal effect (growth inhibition grade) (Cyperus microiria): 5 (Growth inhibition effect is equal to or greater than 90%, or complete withering is achieved) | MONVA #1 herbicidal effect (growth inhibition grade) (Monochoria vaginalis): 5 (Growth inhibition effect is equal to or greater than 90%, or complete withering is achieved)

CCOc1ccc(F)c(CS(=O)(=O)c2ncc(Cl)s2)c1F [Compound 1C-82]
ECHDG #1 herbicidal effect (growth inhibition grade) [1]: 5 (Growth inhibition effect is equal to or greater than 90%, or complete withering is achieved) | SCIJU #1 herbicidal effect (growth inhibition grade) (Scirpus juncoides): 5 (Growth inhibition effect is equal to or greater than 90%, or complete withering is achieved) | ECHDG (2-2.5L) #2 herbicidal effect (growth inhibition grade) [2]: 5 (Growth inhibition effect is equal to or greater than 90%, or complete withering is achieved) | CYMIC #1 herbicidal effect (growth inhibition grade) (Cyperus microiria): 5 (Growth inhibition effect is equal to or greater than 90%, or complete withering is achieved) | MONVA #1 herbicidal effect (growth inhibition grade) (Monochoria vaginalis): 5 (Growth inhibition effect is equal to or greater than 90%, or complete withering is achieved)

CCOc1cc(CS(=O)(=O)c2ncc(Cl)s2)cc(F)c1F [Compound 1C-83]
ECHDG #1 herbicidal effect (growth inhibition grade) [1]: 5 (Growth inhibition effect is equal to or greater than 90%, or complete withering is achieved) | SCIJU #1 herbicidal effect (growth inhibition grade) (Scirpus juncoides): 5 (Growth inhibition effect is equal to or greater than 90%, or complete withering is achieved) | ECHDG (2-2.5L) #2 herbicidal effect (growth inhibition grade) [2]: 4 (Growth inhibition effect is equal to or greater than 70%, and less than 90%) | CYMIC #1 herbicidal effect (growth inhibition grade) (Cyperus microiria): 5 (Growth inhibition effect is equal to or greater than 90%, or complete withering is achieved) | MONVA #1 herbicidal effect (growth inhibition grade) (Monochoria vaginalis): 5 (Growth inhibition effect is equal to or greater than 90%, or complete withering is achieved)

COc1ccc(CS(=O)(=O)c2ncc(Cl)s2)c(F)c1 [Compound 1C-88]
ECHDG #1 herbicidal effect (growth inhibition grade) [1]: 5 (Growth inhibition effect is equal to or greater than 90%, or complete withering is achieved) | SCIJU #1 herbicidal effect (growth inhibition grade) (Scirpus juncoides): 5 (Growth inhibition effect is equal to or greater than 90%, or complete withering is achieved) | ECHDG (2-2.5L) #2 herbicidal effect (growth inhibition grade) [2]: 4 (Growth inhibition effect is equal to or greater than 70%, and less than 90%) | CYMIC #1 herbicidal effect (growth inhibition grade) (Cyperus microiria): 5 (Growth inhibition effect is equal to or greater than 90%, or complete withering is achieved) | MONVA #1 herbicidal effect (growth inhibition grade) (Monochoria vaginalis): 5 (Growth inhibition effect is equal to or greater than 90%, or complete withering is achieved)

COc1cc(Cl)c(CS(=O)(=O)c2ncc(Cl)s2)c(Cl)c1 [Compound 1C-91]
ECHDG #1 herbicidal effect (growth inhibition grade) [1]: 5 (Growth inhibition effect is equal to or greater than 90%, or complete withering is achieved) | SCIJU #1 herbicidal effect (growth inhibition grade) (Scirpus juncoides): 5 (Growth inhibition effect is equal to or greater than 90%, or complete withering is achieved) | ECHDG (2-2.5L) #2 herbicidal effect (growth inhibition grade) [2]: 5 (Growth inhibition effect is equal to or greater than 90%, or complete withering is achieved) | CYMIC #1 herbicidal effect (growth inhibition grade) (Cyperus microiria): 5 (Growth inhibition effect is equal to or greater than 90%, or complete withering is achieved) | MONVA #1 herbicidal effect (growth inhibition grade) (Monochoria vaginalis): 5 (Growth inhibition effect is equal to or greater than 90%, or complete withering is achieved)

CCOc1ccc(CS(=O)(=O)c2ncc(Cl)s2)c(C)c1 [Compound 1C-93]
ECHDG #1 herbicidal effect (growth inhibition grade) [1]: 5 (Growth inhibition effect is equal to or greater than 90%, or complete withering is achieved) | SCIJU #1 herbicidal effect (growth inhibition grade) (Scirpus juncoides): 5 (Growth inhibition effect is equal to or greater than 90%, or complete withering is achieved) | ECHDG (2-2.5L) #2 herbicidal effect (growth inhibition grade) [2]: 5 (Growth inhibition effect is equal to or greater than 90%, or complete withering is achieved) | CYMIC #1 herbicidal effect (growth inhibition grade) (Cyperus microiria): 5 (Growth inhibition effect is equal to or greater than 90%, or complete withering is achieved) | MONVA #1 herbicidal effect (growth inhibition grade) (Monochoria vaginalis): 5 (Growth inhibition effect is equal to or greater than 90%, or complete withering is achieved)

CCOc1ccc(CS(=O)(=O)c2ncc(Cl)s2)c(C(F)(F)F)c1 [Compound 1C-94]
ECHDG #1 herbicidal effect (growth inhibition grade) [1]: 5 (Growth inhibition effect is equal to or greater than 90%, or complete withering is achieved) | SCIJU #1 herbicidal effect (growth inhibition grade) (Scirpus juncoides): 5 (Growth inhibition effect is equal to or greater than 90%, or complete withering is achieved) | ECHDG (2-2.5L) #2 herbicidal effect (growth inhibition grade) [2]: 5 (Growth inhibition effect is equal to or greater than 90%, or complete withering is achieved) | CYMIC #1 herbicidal effect (growth inhibition grade) (Cyperus microiria): 5 (Growth inhibition effect is equal to or greater than 90%, or complete withering is achieved) | MONVA #1 herbicidal effect (growth inhibition grade) (Monochoria vaginalis): 5 (Growth inhibition effect is equal to or greater than 90%, or complete withering is achieved)

CCOc1ccc(CS(=O)(=O)c2ncc(Cl)s2)cc1C(F)(F)F [Compound 1C-98]
ECHDG #1 herbicidal effect (growth inhibition grade) [1]: 5 (Growth inhibition effect is equal to or greater than 90%, or complete withering is achieved) | SCIJU #1 herbicidal effect (growth inhibition grade) (Scirpus juncoides): 5 (Growth inhibition effect is equal to or greater than 90%, or complete withering is achieved) | ECHDG (2-2.5L) #2 herbicidal effect (growth inhibition grade) [2]: 1 (Growth inhibition effect is equal to or greater than 10%, and less than 30%) | CYMIC #1 herbicidal effect (growth inhibition grade) (Cyperus microiria): 5 (Growth inhibition effect is equal to or greater than 90%, or complete withering is achieved) | MONVA #1 herbicidal effect (growth inhibition grade) (Monochoria vaginalis): 5 (Growth inhibition effect is equal to or greater than 90%, or complete withering is achieved)
